Key:
MMP-9 enzyme = molecular target: T1, MMP-9 enzyme (Homo sapiens, UniProt P14780); assay: MMP-9 colorimetric inhibition assay; format: biochemical; conditions: for inhibition at 100 µg/mL: at 100 μg/mL
T1 construct: purchased EnzoLife Sciences Inc. (Farmingdale, New York, NY, USA)
Description: As described in our previous study,[36] the method was applied in exactly the same manner. EnzoLife Sciences Inc. provided MMP-9 colorimetric kits (Farmingdale, New York, NY, USA). The MMP Colorimetric Drug Discovery Kits are a comprehensive test technique that uses a thiopeptide (Ac-PLG-[2-mercapto-4-methyl-pentanoyl]-LG-OC2H5) as a chromogenic substrate to screen MMP inhibitors. Using a microplate reader (BioTek, PowerWave, Gen5 software, Winooski, VT, USA) at room temperature, the UV absorbance was measured at 412 nm. NNGH was employed as an inhibitor of control.

C6 rat glioma cell line = assay: MTT cell viability / cytotoxicity on C6; format: cell-based; conditions: mean ± S.D. of three determinations
Description: (§1) The MTT (3-(4,5-dimethylthiazol-2-yl)-2,5-diphenyltetrazolium bromide) method was applicated to assess the cell viability of L929, C6 and A549 cell lines against the tested compounds according to the reported data.[51] In 96-well plates with a flat bottom, the A549, C6, and L929 cells were cultivated at a density of 5 × 10^3 cells per well. […] After addition, they were incubated for a full day in culture wells. Following the incubation period, 20 μL of phosphate-buffered saline (PBS) (Gibco, Paisley, UK) containing 5 mg/mL MTT powder (Sigma-Aldrich, St. Louis, MO, USA) was added to each well. The medium was taken out of the plate and replaced with 100 μL of DMSO in each well to dissolve the dye. This was left for 2 to 4 h under the same conditions and then left for 10 min. At the conclusion of the procedure, purple formazan, the reduction product of the MTT agent, was formed by the mitochondrial dehydrogenase enzyme of intact cells. A microtiter plate reader (BioTek Plate Reader, Winooski, VT, USA) was used to measure the cells at 540 nm. Cell viability was measured as a percentage and contrasted with that of the cells in the control group. Half-maximal inhibitory concentration 50 (IC50) values were determined by repeating each concentration in three wells and identifying the drug concentrations that decreased the absorbance to 50% of control values. The medium control served as the basis for calculating the percentage of viable cells.

[1] = test system: A549 human lung cancer cell line; assay: MTT cell viability / cytotoxicity on A549; format: cell-based; conditions: for IC50: MTT, mean ± S.D. of three determinations; for inhibition of A549 at the lowest concentration tested: A549, MTT; for SI (L929/A549): selectivity index = IC50 on normal cells/IC50 on cancer cells
Description: (§2) In 75 cm^2 sterile plastic tissue culture flasks, the human lung adenocarcinoma A549 and the mouse fibroblast L929 cell lines were cultured in 90% RPMI (Sigma, Deisenhofen, Germany) media supplemented with 10% (v/v) FBS (Gibco, Paisley, UK) and adherent monolayers of penicillin/streptomycin (100 units/mL) from Gibco, Paisley, UK. These cells were cultured at 37 °C in an environment that was humidified and contained 5% CO2.
as §1

[2] = test system: L929 murine fibroblast cell line; assay: MTT cell viability / cytotoxicity on L929 (healthy cells); format: cell-based, mouse; conditions: mean ± S.D. of three determinations
Description: as §2, §1

A549 cells [3] = assay: Early/late apoptosis by Annexin V-FITC/PI flow cytometry; format: cell-based, human; conditions: A549, IC50 dose, 24 h incubation
Description: Phosphatidylserine externalization, a marker of early apoptosis, was assessed using the FITC Annexin V apoptosis detection kit (BD Pharmingen, San Jose, CA, USA) on a BD FACSAria flow cytometer. Following their collection, the A549 and L929 cells were twice washed in ice-cold PBS before being resuspended in 100 μL of binding buffer. The cells were treated with a volume of 5 μL (5 μg/mL) of Annexin V-FITC and PI, and they were incubated for 15 min at room temperature (20–25 °C) in the dark. Following that, 400 μL of binding buffer was added to the combination samples, and FACSDiva version 6.1.1 was used to analyze the samples on a BD FACSAria flow cytometer.

A549 cells [4] = assay: Mitochondrial membrane depolarization (JC-1, flow cytometry); format: cell-based, human; conditions: A549, IC50 concentration, 24 h
Description: Staining of cells with JC-1 was realized according to the manufacturer’s recommendations of BD, Pharmingen Flow cytometry kit. […] For this purpose, cells were seeded at an optimal density in six-well plates (not exceeding 1 × 10^6/mL cells). The cells were then incubated with the substances to be tested at the appropriate concentration and time. After the treatment, each cell suspension was taken into a 15 mL polystyrene centrifuge tube and the cells were centrifuged at 400g for 5 min and removed from the supernatant. 0.5 mL of a freshly prepared working solution was added to each pellet, and the solution was vortexed. The test cells were soaked in a JC-1 working solution at 37 °C for 10–15 min, and the cells were washed twice. In the first wash, 2 mL of 1X assay buffer was added and the cells were suspended sensitively. Then, the cells were centrifuged at 400g for 5 min and the supernatant was removed, carefully. In the second wash, 1 mL of 1X assay buffer was added and vortexed. After the cells were centrifuged at 400g for 5 min, each cell pellet was suspended in 0.5 mL 1X assay buffer and vortexed. Finally, the cell was analyzed by a flow cytometer.

caspase-3 = assay: Caspase-3 activation in A549 cells; format: cell-based, human; conditions: A549, IC50 of the compounds, 24 h
Description: The Spectrofluorometric Caspase-3 Assay kit (BD Pharmingen, Franklin Lakes, NJ) was used to assess the activation of caspase-3. The purpose of the kit was to measure the early indicator of cells going through apoptosis, known as caspase-3 or the DEVD-cleaving activity. First, 1 × 10^6 cells/mL of cells were resuspended in cold cell lysis buffer, rinsed with PBS, and then allowed to sit on ice for 30 min. […] In each reaction, a well containing 0.2 mL of 1 x HEPES buffer was filled with […] of reconstituted AcDEVD-AMC, a synthetic tetrapeptide fluorogenic substrate for caspase-3 activity. Each reaction/well received 20 μL of cell lysate. The reaction mixtures were incubated at 37 °C for 1 h. Using a microplate reader (Perkin-Elmer/Victor/X3) with an excitation wavelength of 380 nm and an emission wavelength of 460 nm, the amount of AMC released from Ac-DEVD-AMC was quantified. When compared with controls, apoptotic cell lysates containing active caspase-3 produced a significant emission. […] For all doses, duplicate wells were used. This experiment was performed according to Yurttaş et al.[52]

A549 cells [5] = assay: Cell cycle analysis by flow cytometry; format: cell-based, human; conditions: A549, 24 h incubation
Description: Following a 24 h incubation period with the compounds, a cell cycle analysis measurement methodology was implemented in compliance with the manufacturer’s instructions for A549 cells (BD, Biosciences). Next, the cells were immersed in citrate buffer for a short while. At room temperature, the cells were centrifuged for 5 min at 400 g. After the supernatant was decanted, 250 μL of solution A was added to the pellet, and it was allowed to sit at room temperature for 10 min. Solution B (200 μL) was then added, carefully mixed, and incubated at room temperature for 10 min. Solution C (200 μL) was then added. It was gently mixed, allowed to stand at 4 °C for 10 min in the dark, and then examined using BD Bioscience’s MODFID software on a flow cytometer. This method was applied in our previous study.[54]

[6] = Homo sapiens, A549, A549 cell line
[7] = Mus musculus, L929, L929 healthy cell line

T1 sequence (P14780 107-444 limits assumed): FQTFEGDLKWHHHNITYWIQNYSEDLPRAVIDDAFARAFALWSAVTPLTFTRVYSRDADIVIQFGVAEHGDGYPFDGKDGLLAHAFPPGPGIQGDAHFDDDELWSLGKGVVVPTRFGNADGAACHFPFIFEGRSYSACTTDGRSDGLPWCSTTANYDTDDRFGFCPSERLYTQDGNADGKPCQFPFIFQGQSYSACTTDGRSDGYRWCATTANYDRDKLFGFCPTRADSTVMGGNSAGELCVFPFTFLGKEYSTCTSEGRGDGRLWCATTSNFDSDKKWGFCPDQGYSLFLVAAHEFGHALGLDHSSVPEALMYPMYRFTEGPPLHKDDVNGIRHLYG

SMILES | inhibition at 100 µg/mL (MMP-9 enzyme) [%] | IC50 (C6 rat glioma cell line) [µM] | IC50 [1, 6] [µM] | IC50 [2, 7] [µM] | IC50 (MMP-9 enzyme) [µM] | Q1: necrotic cells (A549 cells [3]) [%] | Q2 + Q4: early and late apoptotic cells (A549 cells [3]) [%] | Q2: late apoptotic cells (A549 cells [3]) [%] | Q4: early apoptotic cells (A549 cells [3]) [%] | mitochondrial membrane depolarization % (A549 cells [4]) [%] | mitochondrial membrane polarization % (A549 cells [4]) [%] | % (+): caspase-3 activity positive cells (caspase-3) [%] | % (−): caspase-3 activity negative cells (caspase-3) [%] | % S (A549 cells [5]) [%] | G0/G1% (A549 cells [5]) [%] | G2/M % (A549 cells [5]) [%] | other results
COc1ccc2nc(NC(=O)CSc3nnc(COc4ccccc4NC(C)=O)o3)sc2c1 [Compound 4c, 2-[(5-((2-Acetamidophenoxy)methyl)-1,3,4-oxadiazol-2-yl)thio]-N-(6-methoxybenzothiazol-2-yl)acetamide] | 30.6 ± 2.29 | 22.1 ± 23.7 | > 1030 | 8.52 ± 0.31 |  |  |  |  |  |  |  |  |  |  |  |  | IC50 ([1]; A549 cell line): > 1000 µM
CC(=O)Nc1ccccc1OCc1nnc(SCC(=O)Nc2nc3ccc(Cl)cc3s2)o1 [Compound 4b, 2-[(5-((2-Acetamidophenoxy)methyl)-1,3,4-oxadiazol-2-yl)thio]-N-(6-chlorobenzothiazol-2-yl)acetamide] | 49.5 ± 1.86 | 19.9 ± 6.33 | 24.5 ± 5.76 | < 7.96 |  |  |  |  |  |  |  |  |  |  |  |  | 
COc1ccc(S(=O)(=O)N(CC(=O)NO)CC(C)C)cc1 [NNGH, N-isobutyl-N-(4-methoxyphenylsulfonyl)glycyl hydroxamic, reference compound] |  |  |  |  | 0.0074 ± 0.0002 |  |  |  |  |  |  |  |  |  |  |  | 
CC(=O)Nc1ccccc1OCc1nnc(SCC(=O)Nc2ccc([N+](=O)[O-])cc2)o1 [Compound 4j, 2-[(5-((2-Acetamidophenoxy)methyl)-1,3,4-oxadiazol-2-yl)thio]-N-(4-nitrophenyl)acetamide] | > 50 | > 1000 | < 8.8 | < 7.96 | 22 ± 1.41 |  |  |  |  |  |  |  |  |  |  |  | inhibition of A549 at the lowest concentration tested [1]: greater than 50%; SI (L929/A549) [1]: <1; melting point: 210 to 215 °C; IC50 ([2]; L929 healthy cell line): < 8.8 µM
CCOc1ccc2nc(NC(=O)CSc3nnc(COc4ccccc4NC(C)=O)o3)sc2c1 [Compound 4g, 2-[(5-((2-Acetamidophenoxy)methyl)-1,3,4-oxadiazol-2-yl)thio]-N-(6-ethoxybenzothiazol-2-yl)acetamide] | > 75 | 8.16 ± 0.24 | < 7.82 | < 7.96 | 7.1 ± 1.27 |  |  |  |  |  |  |  |  |  |  |  | inhibition of A549 at the lowest concentration tested [1]: greater than 50%; SI (L929/A549) [1]: <1; melting point: 208 to 212 °C; IC50 ([2]; L929 healthy cell line): < 7.82 µM
N.N.[Cl][Pt][Cl] [cisplatin, reference compound] |  |  |  |  |  | 28.01 | 10.07 | 5.04 | 5.03 | 22.36 | 76.67 | 11.3 | 90.0 | 2.18 | 74.75 | 23.07 | IC50 ([1]; A549 cell line): 4.98 ± 0.66 µM
CC(=O)Nc1ccccc1OCc1nnc(SCC(=O)Nc2nc3ccccc3s2)o1 [Compound 4a, 2-[(5-((2-Acetamidophenoxy)methyl)-1,3,4-oxadiazol-2-yl)thio]-N-(benzothiazol-2-yl)acetamide] | 41.4 ± 1.85 | 18.5 ± 5.58 | 22.3 ± 1.67 | 586 ± 22.9 |  |  |  |  |  |  |  |  |  |  |  |  | SI (L929/A549) [1]: 26.250; melting point: 189 to 194 °C
CC(=O)Nc1ccccc1OCc1nnc(SCC(=O)Nc2ccc(Cl)cc2)o1 [Compound 4k, 2-[(5-((2-Acetamidophenoxy)methyl)-1,3,4-oxadiazol-2-yl)thio]-N-(4-chlorophenyl)acetamide] | 48.4 ± 3.56 | > 1000 | 7.48 ± 0.58 | 38.2 ± 4.91 |  | 33.19 | 17.98 | 10.35 | 7.63 | 6.29 | 93.04 | 1.8 | 98.5 | 18.11 | 63.31 | 18.58 | Q3: viable cells (A549 cells [3]): 48.83%
COc1ccc(NC(=O)CSc2nnc(COc3ccccc3NC(C)=O)o2)cc1 [Compound 4i, 2-[(5-((2-Acetamidophenoxy)methyl)-1,3,4-oxadiazol-2-yl)thio]-N-(4-methoxyphenyl)acetamide] | 40.9 ± 2.54 |  | 1.59 ± 0.44 | 14.6 ± 1.59 |  | 30.12 | 21.54 | 9.75 | 11.79 | 8.84 | 90.51 | 1.9 | 98.2 | 8.09 | 78.78 | 12.14 | Q3: viable cells (A549 cells [3]): 48.35%
CC(=O)Nc1ccccc1OCc1nnc(SCC(=O)Nc2ccc(F)cc2)o1 [Compound 4l, 2-[(5-((2-Acetamidophenoxy)methyl)-1,3,4-oxadiazol-2-yl)thio]-N-(4-fluorophenyl)acetamide] | > 75 | > 1000 | 1.8 ± 0.12 | 397 ± 10.2 | 2.55 ± 0.66 | 32.81 | 18.49 | 11.46 | 7.03 | 8.71 | 90.58 | 1.4 | 98.8 | 6.62 | 69.36 | 24.03 | Q3: viable cells (A549 cells [3]): 48.70%
CC(=O)Nc1ccccc1OCc1nnc(SCC(=O)Nc2nc3ccc([N+](=O)[O-])cc3s2)o1 [Compound 4d, 2-[(5-((2-Acetamidophenoxy)methyl)-1,3,4-oxadiazol-2-yl)thio]-N-(6-nitrobenzothiazol-2-yl)acetamide] | 27.6 ± 2.01 | 28.3 ± 12.1 | > 1030 | < 7.96 |  |  |  |  |  |  |  |  |  |  |  |  | IC50 ([1]; A549 cell line): > 1000 µM; IC50 ([2]; L929 healthy cell line): < 7.8 µM

From article PMC10753699, “Synthesis of Some New 1,3,4-Oxadiazole Derivatives and Evaluation of Their Anticancer Activity” (ACS Omega, 2023)
